# Results taken from patent US9789096B2, “Methods and compositions for selective and targeted cancer therapy” (Board of Regents of the University of Texas System, priority 2013, dated 2017).
# Read-outs that look alike come from different tables or passages of the source.
# Assays:
# [1] = test system: H2122; experiment: Cell viability dose-response, H2122; type: cell-based, human
# Method: (§1) FIG. 6A. […] Cell viability is plotted vs. compound concentration. Compound was added to cells plated at 15% confluence in 96-well plates in RPMI-1640 media supplemented with 5% Fetal Bovine Serum and 2 mM L-Glutamine. After 4 days of incubation, ATP levels were measured using Cell Titer Glo (Promega). Data are presented as the average of 2 replicates ±SEM.
# (§2) Selectivity may be measured by the half maximal inhibitory concentration (IC50), which, as used herein, is a measure of the effectiveness of a compound in killing cells. This quantitative measure indicates how much of a particular compound is needed to kill a particular cell population by half (e.g., as indicated by the amount of ATP). […] The IC50 can be determined by constructing a dose-response curve. The lower the IC50, the higher the potency, and the greater the difference between IC50 values for different cell lines (e.g., sensitive lines vs. insensitive lines, and sensitive lines vs. normal lines) the greater the selectivity. […]
# (§3) With this information, we synthesized and tested a series of small molecules derived in conception from the oxalamide and chromone scaffold including N-acyl ureas, as shown in Tables 6-8. Each compound was tested in a 12-point dose-response study starting at 50 micromolar and decreasing in 3-fold increments to sub-nanomolar concentrations, in duplicate. Additionally, one or more additional cell line was tested in the same way.
# [2] = test system: H1819; experiment: Cell viability dose-response, H1819; type: cell-based, human
# Method: as §1, §2, §3
# [3] = Homo sapiens, NCI-H2122, 12-point dose-response starting at 50 micromolar, 3-fold increments, in duplicate, read-out: toxicity data, H2122
# [4] = Homo sapiens, NCI-H1819, 12-point dose-response starting at 50 micromolar, 3-fold increments, in duplicate, read-out: toxicity data, H1819
# [5] = Homo sapiens, NCI-H2122, Table 9, competitor, read-out: IC50 to H2122 cells
Structure (SMILES),"IC50 [1, 3]","IC50 [2, 4]",other results
COc1ccc(CCNC(=O)C(=O)Nc2cc(F)c(Br)c(F)c2)cc1 [SW206872-1-A],≥ 49.5 µM,≥ 49.5 µM,–
COc1ccc(CCNC(=O)C(=O)Nc2cc(Cl)c(Br)c(Cl)c2)cc1 [SW206875-1-A],25.3 µM,17.8 µM,–
COc1ccc(CCNC(=O)C(=O)Nc2cc(F)c(F)c(Br)c2)cc1 [SW206876-1-A],≥ 49.5 µM,≥ 49.5 µM,–
COc1ccc(CCNC(=O)C(=O)Nc2cc(F)ccc2Br)cc1 [SW206877-1-A],≥ 49.5 µM,≥ 49.5 µM,–
COc1ccc(CCNC(=O)C(=O)Nc2ccc(F)c(Br)c2)cc1 [SW206878-1-A],0.384 µM,≥ 49.5 µM,–
COc1ccc(CCNC(=O)C(=O)Nc2cc(F)ccc2C)cc1 [SW206879-1-A],≥ 49.5 µM,≥ 49.5 µM,–
COc1ccc(CCNC(=O)C(=O)Nc2ccc(C)c(F)c2)cc1 [SW206880-1-A],0.306 µM,≥ 49.5 µM,–
COc1ccc(CCNC(=O)C(=O)Nc2cc(C)cc(F)c2)cc1 [SW206881-1-A],9.9 µM,≥ 49.5 µM,–
COc1ccc(CCNC(=O)C(=O)Nc2cccc(F)c2C)cc1 [SW206882-1-A],≥ 49.5 µM,≥ 49.5 µM,–
COc1ccc(CCNC(=O)C(=O)Nc2ccc(C)cc2F)cc1 [SW206883-1-A],0.727 µM,≥ 49.5 µM,"IC50 [1, 5]: 0.5 µM"
COc1ccc(CCNC(=O)C(=O)Nc2cc(F)ccc2F)cc1 [SW206884-1-A],≥ 49.5 µM,≥ 49.5 µM,–
COc1ccc(CCNC(=O)C(=O)Nc2c(Br)cccc2Br)cc1 [SW206887-1-A],≥ 49.5 µM,≥ 49.5 µM,–
COc1ccc(CCNC(=O)C(=O)Nc2ccc(Br)cc2Br)cc1 [SW206888-1-A],≥ 49.5 µM,≥ 49.5 µM,–
COc1ccc(CCNC(=O)C(=O)Nc2cc(Cl)c(F)c(Cl)c2)cc1 [SW206889-1-A],≥ 49.5 µM,≥ 49.5 µM,–
COc1ccc(CCNC(=O)C(=O)Nc2c(Cl)cccc2Cl)cc1 [SW206890-1-A],≥ 49.5 µM,≥ 49.5 µM,–
COc1ccc(CCNC(=O)C(=O)Nc2cc(Cl)cc(Cl)c2)cc1 [SW206891-1-A],≥ 49.5 µM,43.8 µM,–
COc1ccc(CCNC(=O)C(=O)Nc2cc(Cl)cc(Cl)c2)cc1 [SW206891-2],–,–,"IC50 ([1]; 12-point dose-response starting at 50 micromolar, 3-fold increments, in duplicate, read-out: toxicity data, H2122): ≥ 49.5 µM; IC50 ([2]; 12-point dose-response starting at 50 micromolar, 3-fold increments, in duplicate, read-out: toxicity data, H1819): ≥ 49.5 µM"
COc1ccc(CCNC(=O)C(=O)Nc2ccc(Cl)cc2C)cc1 [SW206926-1],≥ 49.5 µM,≥ 49.5 µM,–
COc1ccc(CCNC(=O)C(=O)Nc2ccc(Cl)cc2F)cc1 [SW206951-1],≥ 49.5 µM,≥ 49.5 µM,–
COc1ccc(CCNC(=O)C(=O)Nc2ccc(Cl)c(F)c2)cc1 [SW206952-1],0.294 µM,≥ 49.5 µM,–
COc1ccc(CCNC(=O)C(=O)Nc2ccc(Cl)cc2Br)cc1 [SW206953-1],≥ 49.5 µM,41.7 µM,–
COc1ccc(CCNC(=O)C(=O)Nc2ccc(Cl)c(Br)c2)cc1 [SW206954-1],0.871 µM,≥ 49.5 µM,–
COc1ccc(CCNC(=O)C(=O)Nc2ccc(Br)c(Br)c2)cc1 [SW206955-1],0.421 µM,≥ 49.5 µM,–

Structure (SMILES),"IC50 [1, 3]","IC50 [2, 4]",other results
COc1ccc(CCNC(=O)C(=O)Nc2ccc(Cl)c(C#N)c2)cc1 [SW206959-1],0.398 µM,≥ 49.5 µM,"IC50 [1, 5]: 0.182 µM"
COc1ccc(CCNC(=O)C(=O)Nc2ccc(Cl)c(Cl)c2)cc1 [SW206960-1],0.491 µM,≥ 49.5 µM,–
COc1ccc(CCNC(=O)C(=O)Nc2ccc(F)cc2)cc1 [SW206961-1],0.286 µM,≥ 49.5 µM,–
COc1ccc(CCNC(=O)C(=O)Nc2ccc(Cl)c(C(F)(F)F)c2)cc1 [SW206962-1],1.4 µM,≥ 49.5 µM,–
COc1ccc(CCNC(=O)C(=O)NCCc2ccc(OC)cc2)cc1 [SW206963-1],≥ 49.5 µM,≥ 49.5 µM,–
COc1cccc(CCNC(=O)C(=O)Nc2ccc(Cl)cc2)c1 [SW206964-1],≥ 49.5 µM,≥ 49.5 µM,–
COc1cccc(CCNC(=O)C(=O)Nc2ccc(Cl)cc2C)c1 [SW206965-1],≥ 49.5 µM,≥ 49.5 µM,–
COc1ccc(CCNC(=O)C(=O)Nc2ccc(C(=O)c3ccccc3)cc2)cc1 [SW206966-1],0.085 µM,≥ 49.5 µM,–
COc1ccc(CCNC(=O)C(=O)Nc2ccccc2)cc1 [SW206967-1],0.456 µM,≥ 49.5 µM,–
COc1ccc(CCNC(=O)C(=O)Nc2ccc(OC)cc2C)cc1 [SW206968-1],≥ 49.5 µM,≥ 49.5 µM,–
COc1ccc(CCNC(=O)C(=O)Nc2ccc(C)c(OC)c2)cc1 [SW206969-1],≥ 49.5 µM,49 µM,–
COc1ccc(CCNC(=O)C(=O)Nc2ccc(OC)c(C)c2)cc1 [SW206970-1],0.809 µM,≥ 49.5 µM,–
COc1ccc(CCNC(=O)C(=O)Nc2ccc(C)cc2OC)cc1 [SW206971-1],≥ 49.5 µM,≥ 49.5 µM,–
COc1ccc(CCNC(=O)C(=O)Nc2ccc(Cl)c(OC)c2)cc1 [SW206973-1],≥ 49.5 µM,49 µM,–
COc1ccc(CCNC(=O)C(=O)Nc2ccc(Cl)c(C)c2)cc1 [SW206974-1],0.697 µM,≥ 49.5 µM,–
C#CCOc1ccc(CCNC(=O)C(=O)Nc2ccc(C(=O)c3ccccc3)cc2)cc1 [SW207038-2-A],3.17 µM,≥ 49.5 µM,–
COc1ccc(CCNC(=O)C(=O)Nc2ccc(C(=O)c3ccc(OC)cc3)cc2)cc1 [SW208009-1-A],0.081 µM,≥ 49.5 µM,–
O=C(NCCc1ccc(O)cc1)C(=O)Nc1ccc(Cl)cc1 [SW208023-1-A],0.257 µM,7.74 µM,–
COc1ccc(CCNC(=O)Nc2ccc(OC)cc2)cc1 [SW208024-1-A],≥ 49.5 µM,≥ 49.5 µM,–
COc1ccc(CCNC(=O)C(=O)NCc2ccc(Cl)cc2)cc1 [SW208025-1-A],≥ 49.5 µM,≥ 49.5 µM,–
COc1ccc(CNC(=O)C(=O)NCc2ccc(Cl)cc2)cc1 [SW208026-1-A],≥ 49.5 µM,≥ 49.5 µM,–
Cc1ccccc1CCNC(=O)C(=O)Nc1ccc(Cl)cc1 [SW208027-1-A],≥ 49.5 µM,≥ 49.5 µM,–
COc1ccc(CCNC(=O)C(=O)N(C)c2cccc(F)c2)cc1 [SW208028-1-A],≥ 49.5 µM,≥ 49.5 µM,–

Structure (SMILES),"IC50 [1, 3]","IC50 [2, 4]",other results
COc1ccc(CCCNC(=O)Nc2ccc(OC)cc2)cc1 [SW208029-1-A],≥ 49.5 µM,≥ 49.5 µM,–
COc1ccc(CCNC(=O)C(=O)N2CCCCC2)cc1 [SW208030-1-A],≥ 49.5 µM,≥ 49.5 µM,–
COc1ccc(CCNC(=O)C(=O)NC2CC2)cc1 [SW208031-1-A],≥ 49.5 µM,≥ 49.5 µM,–
COc1ccc(CCNC(=O)C(=O)NC2CCC2)cc1 [SW208032-1-A],≥ 49.5 µM,≥ 49.5 µM,–
COc1ccc(CCNC(=O)C(=O)NC2CCCC2)cc1 [SW208033-1-A],≥ 49.5 µM,≥ 49.5 µM,–
COc1ccc(CCNC(=O)C(=O)NC2CCCCC2)cc1 [SW208034-1-A],≥ 49.5 µM,≥ 49.5 µM,–
COc1ccc(CCNC(=O)C(=O)NC2CCCCCC2)cc1 [SW208035-1-A],≥ 49.5 µM,≥ 49.5 µM,–
Cc1ccc(CCNC(=O)C(=O)Nc2ccc(Cl)cc2)cc1 [SW208036-1-A],≥ 49.5 µM,≥ 49.5 µM,–
O=C(NCCc1cccc(Cl)c1)C(=O)Nc1ccc(Cl)cc1 [SW208037-1-A],≥ 49.5 µM,≥ 49.5 µM,–
COc1ccc(CCNC(=O)COc2ccc(Cl)cc2)cc1 [SW208038-1-A],≥ 49.5 µM,≥ 49.5 µM,–
O=C(NCCc1ccc(F)cc1)C(=O)Nc1ccc(Cl)cc1 [SW208039-1-A],47.5 µM,≥ 49.5 µM,–
COc1ccc(CNC(=O)COc2ccc(Cl)cc2)cc1 [SW208040-1-A],≥ 49.5 µM,≥ 49.5 µM,–
COc1ccc(CCNC(=O)CNc2ccc(Cl)cc2)cc1 [SW208041-1-A],48.4 µM,≥ 49.5 µM,–
COc1ccc(CNC(=O)CNc2ccc(Cl)cc2)cc1 [SW208042-1-A],≥ 49.5 µM,≥ 49.5 µM,–
COc1ccc(CCNC(=O)NCc2ccccc2)cc1 [SW208043-2-A],≥ 49.5 µM,≥ 49.5 µM,–
COc1ccc(CCNC(=O)C(=O)N2CCOCC2)cc1 [SW208044-1-A],≥ 49.5 µM,≥ 49.5 µM,–
COc1ccc(CCNC(=O)Nc2ccc(Cl)cc2)cc1 [SW208045-1-A],–,–,"IC50 ([1]; Homo sapiens, NCI-H2122, read-out: toxicity data, H2122): ≥ 49.5 µM; IC50 ([2]; Homo sapiens, NCI-H1819, read-out: toxicity data, H1819): ≥ 49.5 µM"
COc1ccc(CNC(=O)Nc2ccc(Cl)cc2)cc1 [SW208046-1-A],≥ 49.5 µM,≥ 49.5 µM,–
COc1ccc(CNC(=O)NCc2ccccc2)cc1 [SW208047-1-A],≥ 49.5 µM,≥ 49.5 µM,–
COc1ccc(CCNC(=O)C(=O)N2CCN(C)CC2)cc1 [SW208048-1-A],≥ 49.5 µM,≥ 49.5 µM,–
COc1ccc(CCNC(=O)C(=O)N2CCCC2)cc1 [SW208049-1-A],≥ 49.5 µM,≥ 49.5 µM,–
COc1ccc(CCNC(=O)c2nc3ccccc3[nH]2)cc1 [SW208050-1-A],≥ 49.5 µM,≥ 49.5 µM,–
